Test results taken from patent US10065990B2, “Cyclic peptide compound, and preparation method, pharmaceutical composition and use thereof” (HANGZHOU GUANYU BIO-MEDICAL CO., LTD, priority 2013, dated 2018).
Read-outs that look alike come from different tables or passages of the source. Each block holds one compound with its values, some of them ahead of it.

Legend:
HDAC1 = HDAC1 (Homo sapiens, UniProt Q13547); assay: HDAC biochemical activity measurement (fluorescent substrate deacetylation);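 also: fluorogenic acetyl-lysine substrate (20 µM) deacetylated by HDAC1, then developer releases fluorophore read at 360 nm excitation and 460 nm emission, inhibitor incubated 30 min at 37 °C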
Sequence of HDAC1 (Q13547 whole entry, species assumed): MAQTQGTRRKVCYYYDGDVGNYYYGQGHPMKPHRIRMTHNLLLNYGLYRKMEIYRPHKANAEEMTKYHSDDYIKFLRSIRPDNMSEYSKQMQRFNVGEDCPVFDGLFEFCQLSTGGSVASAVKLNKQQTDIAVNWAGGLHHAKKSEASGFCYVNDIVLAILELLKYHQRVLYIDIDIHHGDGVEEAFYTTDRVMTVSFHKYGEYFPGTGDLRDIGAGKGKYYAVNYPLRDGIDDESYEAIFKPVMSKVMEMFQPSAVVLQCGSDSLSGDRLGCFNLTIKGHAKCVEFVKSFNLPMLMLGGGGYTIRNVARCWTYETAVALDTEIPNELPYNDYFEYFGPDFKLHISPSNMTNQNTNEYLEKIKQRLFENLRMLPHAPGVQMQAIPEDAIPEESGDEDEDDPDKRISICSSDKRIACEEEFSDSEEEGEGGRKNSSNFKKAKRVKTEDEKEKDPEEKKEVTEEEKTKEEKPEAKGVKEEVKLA

[1] = system: A549 (human lung cancer cells); assay: MTT cancer cell growth inhibition; type: cell-based; details: MTT, 72 hours incubation, read-out: GI50 A54
Outline: (§1)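 72 h exposure, final drug 10^−5–10^−10 M, triplicate wells; 1500 cells/well plated the day before; medium DMEM or 1640 + 10% FBS; 37° C./5% CO2. MTT (5 mg/ml stock) 4 h, DMSO solubilisation, A570 → % viability → GI50.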

[2] = system: HCC827 (human non-small cell lung cancer cells); assay: MTT cancer cell growth inhibition; type: cell-based; details: MTT, 72 hours incubation, HCC827 cells, read-out: GI50 HCC827
Outline: as §1

[3] = system: PANC-1 (Pac-1, human pancreatic cancer cells); assay: MTT cancer cell growth inhibition; type: cell-based; details: MTT, 72 hours incubation, read-out: GI50 PAN
Outline: as §1

[4] = system: N-87 (human gastric cancer cells); assay: MTT cancer cell growth inhibition; type: cell-based; details: MTT, 72 hours incubation, N-87 cells, read-out: GI50 N-87
Outline: as §1

[5] = system: U937 (human leukemia cells); assay: MTT cancer cell growth inhibition; type: cell-based; details: MTT, 72 hours incubation, read-out: GI50 U93
Outline: as §1

[6] = system: KBM5-T315I (human chronic myelogenous leukemia); assay: MTT cancer cell growth inhibition; type: cell-based; details: MTT, 72 hours incubation, KBM5-T315I cells, read-out: GI50 KBM5-T315I
Outline: as §1

[7] = system: Huh-7 (human hepatoma cells); assay: MTT cancer cell growth inhibition; type: cell-based; details: MTT, 72 hours incubation, Huh-7 cells, read-out: GI50 Huh-7
Outline: as §1

[8] = system: DU145 (human prostate cancer cells); assay: MTT cancer cell growth inhibition; type: cell-based; details: MTT, 72 hours incubation, read-out: GI50 Du1
Outline: as §1

[9] = system: HT1080 (human fibrosarcoma cells); assay: MTT cancer cell growth inhibition; type: cell-based; details: MTT, 72 hours incubation, read-out: GI50 HT1
Outline: as §1

[10] = system: K562 (human leukemia cells); assay: MTT cancer cell growth inhibition; type: cell-based; details: MTT, 72 hours incubation, K562 cells, read-out: GI50 K562
Outline: as §1

[11] = system: KBM-5 (human chronic myelogenous leukemia); assay: MTT cancer cell growth inhibition; type: cell-based; details: MTT, 72 hours incubation, KBM-5 cells, read-out: GI50 KBM-5
Outline: as §1

[12] = system: MCF-7 (human breast cancer cells); assay: MTT cancer cell growth inhibition; type: cell-based; details: 72 hours incubation, read-out: GI50 MCF
Outline: as §1

[13] = system: Hela (human cervical cancer cells); assay: MTT cancer cell growth inhibition; type: cell-based; details: MTT, 72 hours incubation, read-out: GI50 Hela
Outline: as §1

[14] = system: SGC-7901 (human gastric cancer cells); assay: MTT cancer cell growth inhibition; type: cell-based; details: MTT, 72 hours incubation, SGC-7901 cells, read-out: GI50 SGC-7901
Outline: as §1

[15] = system: BGC-823 (human gastric cancer cells); assay: MTT cancer cell growth inhibition; type: cell-based; details: MTT, 72 hours incubation, read-out: GI50 BG
Outline: as §1

[16] = system: H1975 (non-small cell lung adenocarcinoma); assay: MTT cancer cell growth inhibition; type: cell-based; details: MTT, 72 hours incubation, H1975 cells, read-out: GI50 H1975
Outline: as §1

[17] = system: Bel-7402 (human hepatoma cells); assay: MTT cancer cell growth inhibition; type: cell-based; details: MTT, 72 hours incubation, Bel-7402 cells, read-out: GI50 Bel-7402
Outline: as §1

[18] = system: lncap (prostate cancer cells); assay: MTT cancer cell growth inhibition; type: cell-based; details: MTT, 72 hours incubation, read-out: GI50 lnca
Outline: as §1

[19] = system: MDA-MB-231 (breast cancer cells); assay: MTT cancer cell growth inhibition; type: cell-based
Outline: as §1

[20] = system: MOLT-4 (human acute lymphoblastic leukemia cells); assay: MTT cancer cell growth inhibition; type: cell-based; details: MTT, 72 hours incubation, read-out: GI50 Mol
Outline: as §1

HDAC7 = target: T1, HDAC7 (Homo sapiens, UniProt Q8WUI4); assay: HDAC biochemical activity measurement (fluorescent substrate deacetylation);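 also: fluorogenic deacetylation assay using acetyl-lysine substrate at 20 µM, enzyme and compound incubated 30 min at 37 °C, then developer added, fluorescence read at 360/460 nm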; details: HDAC7; 37° C. 30 minutes
T1 sequence (Q8WUI4 1-952): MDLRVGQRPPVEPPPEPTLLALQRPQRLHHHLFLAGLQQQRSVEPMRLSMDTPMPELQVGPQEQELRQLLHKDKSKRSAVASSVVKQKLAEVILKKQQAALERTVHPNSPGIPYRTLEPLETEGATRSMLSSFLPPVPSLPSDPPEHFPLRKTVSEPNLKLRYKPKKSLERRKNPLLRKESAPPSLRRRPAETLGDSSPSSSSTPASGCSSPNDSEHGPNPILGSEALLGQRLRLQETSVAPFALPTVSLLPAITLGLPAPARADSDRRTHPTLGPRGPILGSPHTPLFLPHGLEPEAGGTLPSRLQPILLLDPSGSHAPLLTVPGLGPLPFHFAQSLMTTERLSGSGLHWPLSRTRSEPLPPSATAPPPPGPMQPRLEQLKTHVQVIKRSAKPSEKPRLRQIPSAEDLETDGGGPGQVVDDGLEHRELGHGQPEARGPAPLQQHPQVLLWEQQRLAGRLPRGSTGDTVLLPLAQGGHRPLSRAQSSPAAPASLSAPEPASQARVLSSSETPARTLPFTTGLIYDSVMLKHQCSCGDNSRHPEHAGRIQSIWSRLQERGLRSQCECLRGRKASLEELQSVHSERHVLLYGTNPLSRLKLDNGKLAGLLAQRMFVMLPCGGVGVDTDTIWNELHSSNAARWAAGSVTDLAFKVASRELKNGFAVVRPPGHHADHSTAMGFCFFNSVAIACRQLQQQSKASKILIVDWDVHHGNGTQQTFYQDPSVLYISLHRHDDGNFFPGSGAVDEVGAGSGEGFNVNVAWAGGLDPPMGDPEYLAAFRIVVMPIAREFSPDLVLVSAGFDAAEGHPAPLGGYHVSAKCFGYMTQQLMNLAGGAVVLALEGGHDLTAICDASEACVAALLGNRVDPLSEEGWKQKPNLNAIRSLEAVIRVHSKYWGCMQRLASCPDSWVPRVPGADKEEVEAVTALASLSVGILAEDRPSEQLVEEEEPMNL

HDAC2 = HDAC2 (Homo sapiens, UniProt Q92769); assay: as above; details: 37° C. 30 minutes;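 also: HDAC2 enzyme with an acetyl-lysine fluorescent substrate, then developer added, fluorescence read at excitation 360 nm and emission 460 nm, inhibition measured across several compound concentrations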
Sequence of HDAC2 (Q92769 whole entry, species assumed): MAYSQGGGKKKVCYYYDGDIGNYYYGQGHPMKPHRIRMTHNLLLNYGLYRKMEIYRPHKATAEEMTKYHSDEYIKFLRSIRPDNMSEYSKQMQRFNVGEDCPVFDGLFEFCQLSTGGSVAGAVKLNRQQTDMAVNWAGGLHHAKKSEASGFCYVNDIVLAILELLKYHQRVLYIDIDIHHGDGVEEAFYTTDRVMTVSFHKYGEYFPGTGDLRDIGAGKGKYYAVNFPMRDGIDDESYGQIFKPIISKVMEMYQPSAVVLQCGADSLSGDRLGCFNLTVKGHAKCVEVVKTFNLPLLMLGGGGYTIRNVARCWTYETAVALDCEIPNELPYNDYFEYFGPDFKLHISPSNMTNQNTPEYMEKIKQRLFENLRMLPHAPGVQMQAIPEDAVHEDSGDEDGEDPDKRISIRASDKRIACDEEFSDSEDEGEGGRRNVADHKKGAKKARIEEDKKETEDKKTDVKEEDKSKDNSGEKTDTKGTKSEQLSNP
Experimental: The chemical activity of the compound is determined according to the degree of deacetylation inhibition of the HDAC enzyme. This experiment measured the degree of deacetylation related to tumor proliferation and metastasis of HDAC1, HDAC2, HDAC3, HDAC8, HDAC11 five subtypes HDAC enzymes. After the substrate containing an acetylated lysine side chain and HDAC enzyme are labeled with a fluorescent label, the fluorescent substrate is de acetyl. The fluorescent labeled substrate is cleaved by the enzyme, and the fluorescent substance is released, which generates 460 nm emission light under the excitation of 360 nm light.
HDAC substrate was diluted with reaction buffer to 200M (reaction concentration of 20M), the HDAC enzyme was diluted to the appropriate concentration, then added different concentrations of the test compounds and acted at 37° C. 30 minutes, and then added the same volume of 2-times concentration substrate developing solution (developer), incubated at room temperature for 15 minutes.

HDAC11 = target: T2, HDAC11 (Homo sapiens, UniProt Q96DB2); assay: as above; details: read-out: IC50 HDAC11; HDAC11; 37° C. 30 minutes;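 also: HDAC11 enzyme acting on an acetyl-lysine fluorogenic substrate, then a developer frees the fluorophore, read at excitation 360 nm and emission 460 nm, IC50 over a compound dilution series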
T2 sequence (Q96DB2 1-347): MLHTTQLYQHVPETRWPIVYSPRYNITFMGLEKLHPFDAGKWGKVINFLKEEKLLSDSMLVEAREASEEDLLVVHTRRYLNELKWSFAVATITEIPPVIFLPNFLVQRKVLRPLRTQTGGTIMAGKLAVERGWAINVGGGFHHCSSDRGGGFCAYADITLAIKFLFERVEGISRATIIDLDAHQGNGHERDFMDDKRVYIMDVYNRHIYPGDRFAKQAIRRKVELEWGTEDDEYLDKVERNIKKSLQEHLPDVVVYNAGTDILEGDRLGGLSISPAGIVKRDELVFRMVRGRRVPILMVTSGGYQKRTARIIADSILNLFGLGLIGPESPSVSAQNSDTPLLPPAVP

[21] = read-out: GI50 MDA-MB-231, MTT, 72 hours incubation, MDA-MB-231 cells

IC50 (HDAC1; Table 3, column C, read-out: IC50 HDAC1, C (six-membered ring with substituents)): 24 nM | GI50 ([1]; Homo sapiens, A549, 72 h): 30 nM | GI50 ([2]; Homo sapiens, HCC827, 72 h): 51 nM | GI50 ([3]; Homo sapiens, PANC-1, 72 h): 50 nM | GI50 ([4]; Homo sapiens, 72 h): 30 nM | GI50 ([5]; Homo sapiens, U-937, 72 h): 30 nM | GI50 ([6]; Homo sapiens, 72 h): 22 nM | GI50 ([7]; Homo sapiens, Huh-7, 72 h): 46 nM | GI50 ([8]; Homo sapiens, DU-145, 72 h): 20 nM | GI50 ([9]; Homo sapiens, HT-1080, 72 h): 50 nM | GI50 ([10]; Homo sapiens, K562, 72 h): 26 nM | GI50 ([11]; Homo sapiens, KBM5, 72 h): 82 nM | GI50 ([12]; Homo sapiens, MCF7, 72 h): 20 nM | GI50 ([13]; Homo sapiens, HeLa, 72 h): 80 nM | GI50 ([14]; Homo sapiens, SGC-7901, 72 h): 35 nM | GI50 ([15]; Homo sapiens, BGC-823, 72 h): 30 nM | GI50 ([16]; Homo sapiens, NCI-H1975, 72 h): 38 nM | GI50 ([17]; Homo sapiens, Bel-7402, 72 h): 51 nM | GI50 ([18]; Homo sapiens, LNCaP, 72 h): 40 nM | GI50 ([19]; Homo sapiens, MDA-MB-231, 72 h, read-out: GI50 MDA-MB-231, MTT, 72 hours incubation, MDA-MB-231 cells): 46 nM | GI50 ([20]; Homo sapiens, MOLT-4, 72 h): 40 nM
SMILES: C/C=C1\NC(=O)c2cc(F)cc(n2)CNC(=O)C[C@@H](/C=C/CCSC(C)=O)OC(=O)[C@H](C)NC1=O [Compound 64]

IC50 (HDAC1; HDAC1, 37° C. 30 minutes, read-out: IC50 HDAC1): 66 nM | IC50 HDAC7 (HDAC7): no activity | GI50 ([1]; A549 cells): 50 nM | GI50 [2]: 15 nM | GI50 ([3]; PANC-1 cells): 40 nM | GI50 [4]: 17 nM | GI50 ([5]; U937 cells): 90 nM | GI50 [6]: 42 nM | GI50 [7]: 65 nM | GI50 ([8]; DU145 cells): 30 nM | GI50 ([9]; HT1080 cells): 20 nM | GI50 [10]: 48 nM | GI50 [11]: 25 nM | GI50 ([12]; MCF-7 cells): 30 nM | GI50 ([13]; Hela cells): 20 nM | GI50 [14]: 48 nM | GI50 ([15]; BGC-823 cells): 40 nM | GI50 [16]: 37 nM | GI50 [17]: 19 nM | GI50 ([18]; lncap cells): 100 nM | GI50 [19, 21]: 47 nM | GI50 ([20]; MOLT-4 cells): 70 nM
SMILES: C/C=C1\NC(=O)c2ccc(SC)c(n2)CNC(=O)C[C@@H](/C=C/CCSC(C)=O)OC(=O)[C@H](C)NC1=O [Compound 215]

IC50 HDAC7 (HDAC7): no activity | GI50 ([1]; A549 cells): 70 nM | GI50 [2]: 28 nM | GI50 ([3]; PANC-1 cells): 80 nM | GI50 [4]: 42 nM | GI50 ([5]; U937 cells): 70 nM | GI50 [6]: 54 nM | GI50 [7]: 35 nM | GI50 ([8]; DU145 cells): 20 nM | GI50 ([9]; HT1080 cells): 20 nM | GI50 [10]: 28 nM | GI50 [11]: 78 nM | GI50 ([12]; MCF-7 cells): 90 nM | GI50 ([13]; Hela cells): 50 nM | GI50 [14]: 58 nM | GI50 ([15]; BGC-823 cells): 30 nM | GI50 [16]: 76 nM | GI50 [17]: 53 nM | GI50 ([18]; lncap cells): 70 nM | GI50 [19, 21]: 37 nM | GI50 ([20]; MOLT-4 cells): 40 nM | IC50 (HDAC2): 34 nM | IC50 (HDAC11): 87 nM
SMILES: C/C=C1\NC(=O)c2nc(ccc2SC)CNC(=O)C[C@@H](/C=C/CCSC(C)=O)OC(=O)[C@H](C)NC1=O [Compound 213]
